Test results reported in PMC9850771 (RSC Advances, 2023).

Tests used:
Assay type in all cases: cell-based
[1] = system: MCF7; test: MTT cytotoxicity assay, breast cancer cell line MCF7; settings: Homo sapiens; for IC50: MCF7, 24 h, read-out: IC50 MCF7
[2] = system: A375; test: MTT cytotoxicity assay, melanoma cell line A375; settings: Homo sapiens, A-375, 24 h, read-out: IC50 A375
[3] = system: MDA-MB-468; test: MTT cytotoxicity assay, breast cancer cell line MDA-MB-468; settings: Homo sapiens, MDA-MB-468, 24 h, read-out: IC50 MDA-MB-468

Compound: CN(Cc1cnc2nc(N)nc(N)c2n1)c1ccc(C(=O)N[C@@H](CCC(=O)O)C(=O)O)cc1 [MTX, Methotrexate, reference compound]
- IC50 [1]: 30 ± 2.9 µM
- IC50 [2]: 32 ± 2.2 µM
- IC50 [3]: 37 ± 1.9 µM

Compound: Cc1ccc(Cn2cc(COc3nc4c(c(=O)n(C)c(=O)n4C)n3C)nn2)cc1 [Compound 22d, 1,3,7-Trimethyl-8-((1-(4-methylbenzyl)-1H-1,2,3-triazol-4-yl)methoxy)-3,7-dihydro-1H-purine-2,6-dione]
- IC50 [1]: > 300 µM
- IC50 [2]: 194 ± 1.6 µM
- IC50 [3]: > 300 µM

Compound: Cn1c(=O)c2c(nc(OCc3cn(Cc4ccccc4)nn3)n2C)n(C)c1=O [Compound 22c, 8-((1-Benzyl-1H-1,2,3-triazol-4-yl)methoxy)-1,3,7-trimethyl-1H-purine-2,6(3H,7H)-dione]
- IC50 [1]: > 300 µM
- IC50 [2]: < 12.5 µM
- IC50 [3]: > 300 µM

Compound: CCCCCn1cc(COc2nc3c(c(=O)n(C)c(=O)n3C)n2C)nn1 [Compound 22f, 1,3,7-Trimethyl-8-((1-pentyl-1H-1,2,3-triazol-4-yl)methoxy)-1H-purine-2,6(3H,7H)-dione]
- IC50 [1]: 136 ± 0.2 µM
- viability at 300 µM ([1]; MCF7, read-out: viability value, MCF-7): 17 ± 3%
- IC50 [2]: 160 ± 1.5 µM
- IC50 [3]: 126 ± 0.6 µM

Compound: CCCCCCCCCCn1cc(COc2nc3c(c(=O)n(C)c(=O)n3C)n2C)nn1 [Compound 22j, 8-((1-Decyl-1H-1,2,3-triazol-4-yl)methoxy)-1,3,7-trimethyl-1H-purine-2,6(3H,7H)-dione]
- IC50 [1]: > 300 µM
- IC50 [2]: > 300 µM
- IC50 [3]: > 300 µM

Compound: Cn1c(=O)c2c(nc(OCc3cn(CCc4ccccc4)nn3)n2C)n(C)c1=O [Compound 22b, 1,3,7-Trimethyl-8-((1-phenethyl-1H-1,2,3-triazol-4-yl)methoxy)-1H-purine-2,6(3H,7H)-dione]
- IC50 [1]: > 300 µM
- IC50 [2]: > 300 µM
- IC50 [3]: > 300 µM

Compound: Cn1c(=O)c2c(nc(OCc3cn(CCCc4ccccc4)nn3)n2C)n(C)c1=O [Compound 22a, 1,3,7-Trimethyl-8-((1-(3-phenylpropyl)-1H-1,2,3-triazol-4-yl)methoxy)-1H-purine-2,6(3H,7H)-dione]
- IC50 [1]: 268 ± 0.2 µM
- IC50 [2]: 179 ± 1.2 µM
- IC50 [3]: 256 ± 1.4 µM

Compound: CCCCCCCCn1cc(COc2nc3c(c(=O)n(C)c(=O)n3C)n2C)nn1 [Compound 22i, 1,3,7-Trimethyl-8-((1-octyl-1H-1,2,3-triazol-4-yl)methoxy)-1H-purine-2,6(3H,7H)-dione]
- IC50 [1]: 165 ± 1.8 µM
- IC50 [2]: 146 ± 1.5 µM
- IC50 [3]: 175 ± 1.4 µM

Compound: CCCCCCn1cc(COc2nc3c(c(=O)n(C)c(=O)n3C)n2C)nn1 [Compound 22g, 8-((1-Hexyl-1H-1,2,3-triazol-4-yl)methoxy)-1,3,7-trimethyl-1H-purine-2,6(3H,7H)-dione]
- IC50 [1]: > 300 µM
- IC50 [2]: > 300 µM
- IC50 [3]: > 300 µM

Compound: CCCCCCCn1cc(COc2nc3c(c(=O)n(C)c(=O)n3C)n2C)nn1 [Compound 22h, 8-((1-Heptyl-1H-1,2,3-triazol-4-yl)methoxy)-1,3,7-trimethyl-1H-purine-2,6(3H,7H)-dione]
- IC50 [1]: > 300 µM
- IC50 [2]: > 300 µM
- IC50 [3]: > 300 µM

Compound: Cn1c(=O)c2c(nc(OCc3cn(C(c4ccccc4)c4ccccc4)nn3)n2C)n(C)c1=O [Compound 22e, 8-((1-Benzhydryl-1H-1,2,3-triazol-4-yl)methoxy)-1,3,7-trimethyl-1H-purine-2,6(3H,7H)-dione]
- IC50 [1]: 284 ± 0.2 µM
- IC50 [2]: 286 ± 0.2 µM
- IC50 [3]: > 300 µM
